Laboratory results reported in PMC4604048 (The Pediatric infectious disease journal, 2015).

Tests used:
[1] = Intensive steady-state plasma pharmacokinetics of dolutegravir, Stage I; format: in vivo, human (HIV-1 infected treatment-experienced adolescents); settings: Stage I N=10, ~1 mg/kg once daily; for AUC(0-t) / concentration at 24 h / Cmax / half-life: human, plasma, oral, 1 mg/kg
[2] = tested on: CD4 cell count; assay: Change from baseline in CD4 cell count and percentage at Week 48; format: in vivo, human (HIV-1 infected treatment-experienced adolescents); settings: Week 48, dolutegravir plus OBR
[3] = Safety and adverse events through Week 48
[4] = tested on: virus with R263K mutation at virologic failure; settings: adult study where R263K mutation was seen; cited from earlier work
[5] = tested on: HIV-1; assay: Virologic efficacy: plasma HIV-1 RNA through Week 48; format: in vivo, human (HIV-1 infected treatment-experienced adolescents); settings: Week 48, N=23, dolutegravir plus OBR
[6] = tested on: HIV; settings: week 48; cited from earlier work
[7] = in vivo; cited from earlier work
[8] = Grade 1 or 2 transient clinical events, N=23, not considered related to dolutegravir

## C[C@@H]1CCO[C@H]2Cn3cc(C(=O)NCc4ccc(F)cc4F)c(=O)c(O)c3C(=O)N12 [Dolutegravir]
[1]
  C24, GM (geometric mean): 0.90 µg/mL
  CL/F, GM: 78.03 L/h
  CL/F, Mean (SD): 1.25 (±0.97) L/hr
  CL/F, Median (min, max): 0.87 (0.59, 3.83) L/hr
  Tmax, Median (min, max): 3.00 (1.00, 6.00) hr
[1]; AUC0–24, GM, Table 2
  AUC(0-t): 43100 ng·h/mL
[1]; AUC0–24, Mean (SD)
  AUC(0-t): 51600 ng·h/mL
[1]; AUC0–24, Median (min, max)
  AUC(0-t): 52900 ng·h/mL
[1]; C24, GM (geometric mean)
  concentration at 24 h: 900 ng/mL
[1]; C24, Mean (SD)
  concentration at 24 h: 1090 ng/mL
[1]; C24, Median (min, max)
  concentration at 24 h: 1140 ng/mL
[1]; Mean (SD)
  Cmax: 3820 ng/mL
[1]; Median (min, max)
  Cmax: 4010 ng/mL
[1]; T1/2, GM
  half-life: 11.9 h
[1]; T1/2, Median (min, max)
  half-life: 10.4 h
[2]
  Median (IQR) gain in CD4 cell count: 84 cells/µL
[3]; [8]
  abdominal pain, subjects: 21%
  arthralgia, subjects: 13%
  back pain, subjects: 13%
  decrease appetite, subjects: 30%
  diarrhea, subjects: 35%
  dizziness, subjects: 17%
  extremity pain, subjects: 26%
  fever, subjects: 30%
  headache, subjects: 26%
  lymphadenopathy, subjects: 26%
  nasal congestion, subjects: 30%
  nausea, subjects: 13%
  pharyngeal pain, subjects: 35%
  sinus congestion, subjects: 17%
[3]; through Week 48
  Grade 4 AEs, SAEs or discontinuations due to AEs: no Grade 4 AEs, SAEs or discontinuations due to AEs
[3]; through Week 48, dolutegravir plus OBR
  tolerability: well tolerated
[4]
  dolutegravir FC values at virologic failure: < 2 fold
[5]
  Virologic success: proportion with HIV RNA < 400 copies/mL: 74%
  proportion with HIV RNA < 50 copies/mL: 61%

## Cc1nnc(C(=O)NC(C)(C)c2nc(C(=O)NCc3ccc(F)cc3)c(O)c(=O)n2C)o1 [raltegravir]
[6]
  virologic efficacy of the adolescent cohort: 57%

## CCC[C@@]1(CCc2ccccc2)CC(O)=C([C@H](CC)c2cccc(NS(=O)(=O)c3ccc(C(F)(F)F)cn3)c2)C(=O)O1 [tipranavir]
[7]
  children reporting serious adverse events: 25%
  treatment discontinuation due to serious adverse events: 8%
